Source: EP4070856A1, “ORGANIC COMPOUNDS AND USES THEREOF” (Adebiyi, Ezekiel, priority 2021, dated 2022)

Assay: In vitro cytotoxicity with L-6 cells (Alamar Blue)
Assay type: cell-based
Conditions: L-6 cells (rat skeletal myoblasts), 70 h + 2 h Alamar Blue; read-out: Cytotoxicity L6 IC50
Experimental: Assays were performed in 96-well microtiter plates, each well containing 100 µl of RPMI 1640 medium supplemented with 1% L-glutamine (200mM) and 10% fetal bovine serum, and 4000 L-6 cells (a primary cell line derived from rat skeletal myoblasts). Serial drug dilutions of eleven 3-fold dilution steps covering a range from 100 to 0.002 µg/ml were prepared. After 70hours of incubation the plates were inspected under an inverted microscope to assure growth of the controls and sterile conditions. 10µl of Alamar Blue was then added to each well and the plates incubated for another 2 hours. Later they were read with a Spectramax Gemini XS microplate fluorometer (Molecular Devices Cooperation, Sunnyvale, CA, USA) using an excitation wave length of 536 nm and an emission wave length of 588 nm. The IC50 values were calculated by linear regression from the sigmoidal dose inhibition curves using SoftmaxPro software (Molecular Devices Cooperation, Sunnyvale, CA, USA). Podophyllotoxin (Sigma P4405) as control.

Row | Compound | CC50 at 72 h | IC50 at 72 h
1 | N=C(NO)c1ccc(C(=O)NO)cc1 [Compound 1c] | 56.1 µg/mL | –
2 | N=C(NO)c1ccc(NC(=O)NOCc2ccccc2)cc1 [Compound 2b] | 43 µg/mL | –
3 | N=C(NO)c1ccc(NC(=O)NO)cc1 [Compound 2c] | > 100 µg/mL | –
4 | N=C(NO)c1ccc(NC(=S)NOCc2ccccc2)cc1 [Compound 3c] | 57.6 µg/mL | –
5 | O=C(NO)Nc1ccc(Cl)c(Cl)c1 [Compound 4b] | > 100 µg/mL | –
6 | O=C(NO)NC1CCCCC1 [Compound 7b] | 93 µg/mL | –
7 | Nc1ccc(C(=O)NO)cc1 [Compound 9b] | 43.4 µg/mL | –
8 | CCCCONC(=O)c1ccc(NC(=N)N)cc1 [Compound 9d] | > 100 µg/mL | –
9 | CC(=O)N(O)c1ccc(C(=N)NO)cc1 [Compound 10c] | 52.2 µg/mL | –
10 | N=C(NO)c1ccc(S(=O)(=O)NO)cc1 [Compound 12b] | > 100 µg/mL | –
11 | NC(=O)c1ccc(S(=O)(=O)NO)cc1 [Compound 12c] | > 100 µg/mL | –
12 | N=C(N)c1ccc(S(=O)(=O)NO)cc1 [Compound 12d] | > 100 µg/mL | –
13 | N=C(N)c1ccc(N)cc1 [Compound 13c] | 42.9 µg/mL | –
14 | CC(C)(C)C(=O)N(O)c1ccc(C#N)cc1 [Compound 15a] | 33.5 µg/mL | –
15 | Cc1ccc(S(=O)(=O)NC(C#N)C#N)cc1 [Compound 16a] | > 100 µg/mL | –
16 | N#Cc1nc(-c2ccco2)c[n+]([O-])c1N [Compound 16b] | 61.1 µg/mL | –
17 | Nc1nc2ncc(C(=O)O)nc2c(=O)[nH]1 [Compound P6CAH] | > 100 µg/mL | –
18 | COc1cc([C@@H]2c3cc4c(cc3[C@H](O)[C@H]3COC(=O)[C@H]23)OCO4)cc(OC)c1OC [Podophyllotoxin, reference compound] | – | 0.006 µg/mL
